Here are results for 16 compounds from patent US20210369661A1, “METHODS AND COMPOSITIONS FOR TREATING AND RECOVERING FROM VIRAL INFECTIONS” (IMMUNOFLEX THERAPEUTICS INC., priority 2020, published 2021).

Data set [1] deals with influenza virus strain A/PR8(H1N1). The following applies: lethal influenza infection in mice; cited from earlier work.
For another data set, the target named is CB2 receptor (Homo sapiens, UniProt P34972). The following applies: nM concentrations; cited from earlier work.
For the next data set, the system named is CB1 and CB2. The following applies: cited from earlier work; for Agonism or antagonism against CB1 and CB2: up to 20 μM.
The target in another data set is GPR55 (Homo sapiens, UniProt Q9Y2T6). The following applies: cited from earlier work.
The test system of a further data set is HCV infected cells. The following applies: in vitro; cited from earlier work.
Data set [2] relates to HIV. The following applies: cited from earlier work.
Data set [3] deals with influenza A (H5N1) viruses. The following applies: lung epithelial cells; cited from earlier work.
Data set [4] deals with HIV. The following applies: 293.27.2, H9, MOLT-4 cells, PBMCs; with or without TNFα / PMA stimulation; cited from earlier work.
Data set [5] relates to A/swine/HeBei/012/2008 (H9N2) viruses. The following applies: intra-nasal inoculation with or without NAC; cited from earlier work.
Data set [6] has as its system A/H1N1 Singapore 6/86 influenza virus. The following applies: cited from earlier work.
Another data set deals with human PBMCs. The following applies: NAC 1 mM, in vitro; cited from earlier work.
Data set [7] concerns TCR β chain immune repertoire. Kind of data set: T cell receptor β chain immune repertoire diversity index after a controlled dose (iRepertoire sequencing of blood). Format: in vivo, human. The following applies: for Total number of clonotypes: within 24-48 hr of applied dose.
A further data set has as its target CB1 receptor (Homo sapiens, UniProt P21554). The following applies: read-out: I value at the CB1 receptor; cited from earlier work.
The target in data set [8] is monoacylglycerol lipase (MAGL). The following applies: reversible mechanism; read-out: IC50, inhibition of MAGL; cited from earlier work.
The target of data set [9] is T1, fatty acid amide hydrolase (FAAH) (Rattus norvegicus, UniProt P97612).
T1 construct: from tissue; host or cells: rat brain homogenates
T1 sequence (P97612 1-579): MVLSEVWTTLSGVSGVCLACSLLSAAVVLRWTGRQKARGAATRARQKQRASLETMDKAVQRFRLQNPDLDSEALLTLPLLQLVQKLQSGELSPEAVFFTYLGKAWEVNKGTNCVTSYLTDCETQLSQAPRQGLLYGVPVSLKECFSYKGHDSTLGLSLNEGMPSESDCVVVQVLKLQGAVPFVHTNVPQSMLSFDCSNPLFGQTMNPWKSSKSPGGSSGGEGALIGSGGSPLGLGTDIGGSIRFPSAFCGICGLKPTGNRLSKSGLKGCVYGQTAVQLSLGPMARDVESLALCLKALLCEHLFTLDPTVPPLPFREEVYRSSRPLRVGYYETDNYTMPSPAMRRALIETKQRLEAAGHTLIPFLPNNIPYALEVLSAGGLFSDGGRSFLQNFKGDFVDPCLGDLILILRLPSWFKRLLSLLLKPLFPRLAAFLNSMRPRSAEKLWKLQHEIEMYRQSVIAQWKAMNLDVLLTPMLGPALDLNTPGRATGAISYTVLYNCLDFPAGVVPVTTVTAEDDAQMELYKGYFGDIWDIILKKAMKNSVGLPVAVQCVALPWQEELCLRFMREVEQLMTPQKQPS
The following applies: rat brain homogenates; read-out: IC50, inhibition of anandamide hydrolysis; cited from earlier work.

The conditions of data set [10]: cited from earlier work.
Data set [11] can be described thus: Intoxication after topical application of THC salve. The following applies: 10 mg THC, application for three days.
For the next data set, the system named is influenza virus. The following applies: combination with ribavirin vs ribavirin alone; cited from earlier work.

Molecules are shown by their SMILES. Values joined by “and” are separate entries in the source; they are usually repeats but may differ in a detail not shown here. Equal values may be shown once. “Also recorded” adds a separate entry of the source. Bounds are passed on as bounds.

Sequence of GPR55 (Q9Y2T6 whole entry, species assumed): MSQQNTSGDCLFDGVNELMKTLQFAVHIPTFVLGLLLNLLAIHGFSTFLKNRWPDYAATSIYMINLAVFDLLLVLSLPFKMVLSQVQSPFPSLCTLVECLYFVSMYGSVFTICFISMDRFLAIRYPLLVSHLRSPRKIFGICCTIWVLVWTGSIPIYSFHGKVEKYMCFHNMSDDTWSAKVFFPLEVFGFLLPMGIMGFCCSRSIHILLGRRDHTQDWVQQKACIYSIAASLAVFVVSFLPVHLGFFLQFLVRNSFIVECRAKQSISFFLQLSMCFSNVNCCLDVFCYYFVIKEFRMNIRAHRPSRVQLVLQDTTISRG
Sequence of CB1 receptor (P21554 whole entry): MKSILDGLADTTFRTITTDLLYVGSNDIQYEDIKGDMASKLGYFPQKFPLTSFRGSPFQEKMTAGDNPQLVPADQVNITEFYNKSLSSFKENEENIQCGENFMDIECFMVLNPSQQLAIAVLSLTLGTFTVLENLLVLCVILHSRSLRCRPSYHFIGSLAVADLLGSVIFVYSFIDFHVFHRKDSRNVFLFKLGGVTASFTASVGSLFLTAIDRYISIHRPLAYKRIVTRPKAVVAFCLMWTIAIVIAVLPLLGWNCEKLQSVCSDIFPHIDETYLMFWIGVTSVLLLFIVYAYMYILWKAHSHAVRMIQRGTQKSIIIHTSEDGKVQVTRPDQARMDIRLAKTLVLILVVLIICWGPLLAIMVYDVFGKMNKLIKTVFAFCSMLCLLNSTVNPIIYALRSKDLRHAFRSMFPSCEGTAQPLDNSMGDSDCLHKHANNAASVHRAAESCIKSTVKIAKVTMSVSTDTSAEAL
Sequence of CB2 receptor (P34972 whole entry): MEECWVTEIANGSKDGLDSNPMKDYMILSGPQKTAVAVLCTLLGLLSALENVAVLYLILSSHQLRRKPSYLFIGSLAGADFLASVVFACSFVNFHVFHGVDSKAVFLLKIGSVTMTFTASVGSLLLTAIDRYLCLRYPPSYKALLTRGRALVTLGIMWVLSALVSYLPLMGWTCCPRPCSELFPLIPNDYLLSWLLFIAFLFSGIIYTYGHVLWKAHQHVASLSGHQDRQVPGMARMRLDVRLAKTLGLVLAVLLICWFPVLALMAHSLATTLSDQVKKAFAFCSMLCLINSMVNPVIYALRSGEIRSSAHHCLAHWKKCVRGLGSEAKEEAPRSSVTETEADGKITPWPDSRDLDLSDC

As to `CCOC(=O)C1=C[C@@H](OC(CC)CC)[C@H](NC(C)=O)[C@@H](N)C1` [oseltamivir], the Survival rate in data set [1] was 60%.
Turning to `C=C1CC/C=C(\C)CC[C@@H]2[C@@H]1CC2(C)C` [β-caryophyllene], the “Functional activity at the CB2 receptor” value on CB2 receptor is on record as “full agonist”.
As to `Cc1cc(C)c2nc(-c3ccccn3)cc(C(=O)Nc3ccc(S(=O)(=O)Nc4onc(C)c4C)cc3)c2c1` [ML193], the “Agonism or antagonism against CB1 and CB2” value (“Agonism or antagonism” below) with CB1 and CB2 was “no observed agonism or antagonism”.
Turning to `Cc1cccc(N2CCN(C(=O)c3cc(S(=O)(=O)N(C)C)ccc3N3CCCC3)CC2)c1C` [ML184], the “Potency for GPR55” value on GPR55 is listed as 263 nM. Besides, in the data set on CB1 and CB2, the “Selectivity against CB1 and CB2” value is reported as 57 fold.
With `C=C(C)[C@@H]1CCC(C)=C[C@H]1c1c(O)cc(CCCCC)cc1O` [CBD, cannabidiol], the “Cell death of HCV infected cells” value with HCV infected cells is reported as “approximately 85%”.
Turning to `CC(=O)N[C@@H](CS)C(=O)O` [NAC, N-acetylcysteine], the “Survival, risk ratio” value with HIV [2] (73 subjects with survival data, P=0.0003, median NAC dose 5.3 g/day, median 24 weeks) is reported as 0.3 (0.1-0.6). In addition, the Viral load entry in the data set on HIV [2] (NAC treatment during the trial, P>0.1) was “did not result in a significant change”. Further, the “CD4 T cell count” value in the data set on HIV [2] (NAC treatment during the trial, P>0.9) is recorded as “did not result in a significant change”. Moreover, the “Whole blood GSH and T cell GSH” value in the data set with HIV [2] (NAC treatment for 8 weeks) is given as “replenished”. The “Production of pro-inflammatory molecules” value in data set [3] is reported as “inhibit”. Further, in the data set with HIV [4], the HIV replication result is given as “inhibit HIV replication; also recorded: blocked stimulation of HIV replication”. For the same compound, in data set [5], the “Pulmonary inflammation, edema, myeloperoxidase, cells and cytokines in BAL fluid” value is “reduced”. Also, the Tolerability result in data set [6] (NAC 600 mg twice daily for 6 months) was “well tolerated”. In addition, the “Virus-infected subjects who developed a symptomatic form” value in data set [6] (NAC effervescent tablets 600 mg twice daily for 6 months, 79% in the placebo group) is recorded as 25%. For the same compound, the “Influenza virus specific T lymphocyte proliferation and IFNγ production” value in the data set on human PBMCs is given as “increase”. Further, in [7] (NAC single 1200 mg dose (2×600 mg effervescent tablets), 24 hours post dose), the “Diversity index, Dosed” value is 20.0 and 15.9. Moreover, the “Diversity index, Fold change” value in data set [7] (NAC single 1200 mg dose, 24 hours vs baseline) was 1.6 fold and 1.5 fold. The “Time until immune diversity returns to baseline” value in [7] (after a single dose) was 24 h. For the same compound, the “Total number of clonotypes” value in data set [7] is “increases”.
For the compound `C=C[C@H](O)C#CC#CC/C=C\CCCCCCC` [falcarinol], on CB1 receptor, the Ki is less than 1000 nM.
Consider `Cc1ccc(C2(C(=O)N3CCC(n4nc(-c5ccccc5)oc4=O)CC3)CC2)cc1` [ML191], for which the “Agonism or antagonism” value with CB1 and CB2 is “no observed agonism or antagonism”.
What is called IC50 is the concentration needed to halve the response being measured. Consider `CC(C)=CCC[C@@H](C)[C@@H]1CC[C@]2(C)C3=C(CC[C@@]12C)[C@@]1(C)CC[C@H](O)C(C)(C)[C@@H]1CC3` [euphol], for which the concentration for half-maximal inhibition (IC50) in [8] was 315 nM.
For `O=c1cc(-c2ccccc2)oc2cc(O)ccc12` [7-hydroxyflavone], in data set [9], the 50% inhibitory concentration (IC50) is less than 1000 nM.
As to `COc1ccc(-c2csc(NC(=O)CSc3nnc4c(C)cc5ccccc5n34)n2)cc1` [ML185], on GPR55, the “Potency for GPR55” value is 658 nM. Besides, the “Selectivity against CB1 and CB2” value with CB1 and CB2 is recorded as “greater than 48 fold”.
Consider `COc1ccc(S(=O)(=O)N2CCOCC2)cc1NC(=O)c1cc2c(s1)CCCC2` [ML186], for which, at GPR55, the “Potency for GPR55” value is 305 nM. Moreover, the “Selectivity against CB1 and CB2” value in the data set on CB1 and CB2 is on record as “greater than 100 fold”.
As for `Cc1nc(N2CCN(C(=O)c3ccco3)CC2)c2c3c(sc2n1)CCCC3` [ML192], the “Agonism or antagonism” value in the data set with CB1 and CB2 is recorded as “no observed agonism or antagonism”.
As for `CCCCCc1cc(O)c2c(c1)OC(C)(C)[C@@H]1CCC(C)=C[C@@H]21` [Dronabinol], in [10] (oral), the “Amount reaching the blood stream by absorption through the digestive system” value is 10-20 % of the administered dose. Moreover, the “Duration of peak therapeutic effect” value in data set [10] (post administration) is 2 to 4 h.
For the compound `CCCCCc1cc(O)c2c(c1)OC(C)(C)[C@@H]1CCC(C)=C[C@@H]21` [THC, Δ^9-tetrahydrocannabinol], the “Intoxication characteristic of THC” value in [11] is “without intoxication”. Besides, in data set [7], the “Total number of clonotypes” value is reported as “rapidly increases”.
`NC(=O)c1ncn([C@@H]2O[C@H](CO)[C@@H](O)[C@H]2O)n1` [ribavirin]: the Survival rate in the data set on influenza virus is reported as 58%.
